Measurements from ChEMBL document CHEMBL1201862, “PubChem BioAssay data set” (2004).
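Grown in 96-well plates, cells were treated for 48 hours with each compound at five concentrations. Insufficient inhibition: endpoint recorded as highest concentration tested. GI50 marks 50% less growth.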 The source made the active and inactive calls. Rule as the data show it: active = GI50 up to about 1.1 µM and inactive = higher.

Assays:
Test in all cases: growth of human tumour cells (NCI), 48 h
[1] = tested on: A498
[2] = tested on: RPMI-8226
[3] = tested on: DLD-1
[4] = tested on: MCF7
[5] = tested on: KM-20L2
[6] = tested on: CAKI-1
[7] = tested on: M19-MEL
[8] = tested on: NCI-H23
[9] = tested on: SR

Compound	GI50 [1]	GI50 [2]	GI50 [3]	GI50 [4]	GI50 [5]	GI50 [6]	GI50 [7]	GI50 [8]	GI50 [9]
C=C1C[C@@H](O)C[C@@]2(C)C[C@@H]3OC(=O)C(=C)[C@@H]3C[C@H]12	12.4 µM (inactive)	2.92 µM (inactive)	3.85 µM (inactive)	3.78 µM (inactive)	5.83 µM (inactive)	4.22 µM (inactive)	20.4 µM (inactive)	15.9 µM (inactive)	–
COC(=O)C1C(O)C(C)C(O)C(C)(O)/C=C\C=C(C)C(=O)Nc2c(C)c(OC(C)=O)c3c(c2O)C(=O)C(C)=C2OCOC(=C23)C(C)=CC(C)(O)C(O)C(C)C1OC(C)=O (stereo not drawn)	49.8 µM (inactive)	33.3 µM (inactive)	24.7 µM (inactive)	18 µM (inactive)	33.7 µM (inactive)	47.5 µM (inactive)	17.3 µM (inactive)	24.4 µM (inactive)	–
CC[C@H]1CN2CCc3cc(OC)c(OC)cc3[C@@H]2C[C@@H]1C[C@H]1NCCc2cc(O)c(OC)cc21	–	0.146 µM (active)	0.0277 µM (active)	0.025 µM (active)	0.025 µM (active)	0.025 µM (active)	0.0253 µM (active)	0.0261 µM (active)	< 0.01 µM (active)
CCOC(=O)CNC(=O)NC12CC3CC(CC(C3)C1)C2	147 µM (inactive)	274 µM (inactive)	65.8 µM (inactive)	115 µM (inactive)	237 µM (inactive)	169 µM (inactive)	111 µM (inactive)	182 µM (inactive)	–
Cc1cc(O)c2c(c1O)C(=O)C13C(=C(O)C4C(O)C1C1C(O)C3C(O)=C3C(=O)c5c(O)cc(C)c(O)c5C(=O)C341)C2=O (stereo not drawn)	0.0362 µM (active)	0.0121 µM (active)	0.0455 µM (active)	0.0577 µM (active)	4.28 µM (inactive)	0.209 µM (active)	0.0545 µM (active)	0.207 µM (active)	–
C[S+](C)CC1OC(n2cnc3c(N)ncnc32)C(O)C1O (stereo not drawn)	> 225 µM (inactive)	> 225 µM (inactive)	> 225 µM (inactive)	> 225 µM (inactive)	> 225 µM (inactive)	> 225 µM (inactive)	> 179 µM (inactive)	> 225 µM (inactive)	–
